# System: lactobacillus
# Test: Liquid culture of lactobacillus
# Format: cell-based
smiles,measurement,value
CC(=O)N[C@H]1C(O)O[C@H](CO)[C@@H](O)[C@@H]1O (stereo partly drawn) [N-acetyl-D-glucosamine],growth of lactobacillus,could promote the growth of lactobacillus

# From patent US7704976B2, “Use of N-acetyl-D-glucosamine for preparing medicines for urogenital tract infection's treatment and prevention” (Third Military Medical University, Chinese People's …, priority 2002, dated 2010)
